Test results from the NIST ThermoML archive (doi:10.1016/j.tca.2013.03.017).

Experiments:
[1] = xn = mol fraction of the nth substance listed; conditions: 101 kPa, Liquid, Hot wire method, x2 = 0
[2] = molar heat capacity at constant pressure; xn = mol fraction of the nth substance listed; conditions: 101 kPa, Liquid, Small sample (50 mg) DSC, x2 = 0
[3] = 101 kPa, Liquid, Hot wire method
[4] = molar heat capacity at constant pressure; conditions: 101 kPa, Liquid, Small sample (50 mg) DSC

O [water] + O=S1(=O)CCCC1
Conditions	molar heat capacity at constant pressure, [2] [J/K/mol]	thermal conductivity, [1] [W/m/K]
303.15 K	75.3	0.6137
313.15 K	75.26	0.6307
323.15 K	75.3	0.6437
333.15 K	75.39	0.6548
343.15 K	75.48	0.6632
353.15 K	75.6	0.67

O [water]
Conditions	molar heat capacity at constant pressure, [4] [J/K/mol]	thermal conductivity, [3] [W/m/K]
303.15 K	75.3	0.6137
313.15 K	75.26	0.6307
323.15 K	75.3	0.6437
333.15 K	75.39	0.6548
343.15 K	75.48	0.6632
353.15 K	75.6	0.67

O=S1(=O)CCCC1 [sulfolane]
Conditions	molar heat capacity at constant pressure, [4] [J/K/mol]	thermal conductivity, [3] [W/m/K]
303.15 K	181.5	0.1678
313.15 K	185.1	0.1656
323.15 K	188.7	0.1634
333.15 K	192.3	0.1616
343.15 K	194.3	0.1593
353.15 K	197.8	0.1581
